Experimental findings from the supplement of paper PMC11208160 are described below.

The nature of the data set: recombinant barcode read abundance after kanamycin selection (control-corrected) (log10(CPM+1)); higher = more efficient recombination; sequences stand for … in AGTGCAGAGAAAATCGGCCAGTTTTCTCTGCCTGCAGTCCGCATGCCGT…AGATTTATGCAGCGGACTGCCTTTCTCCCAAAGTGATAAACCGGACAGTATCATGGACCGGTTTTCCCGGTAATCCGTATTTGCAAGGTTGGTTTCACT; site = the 11-nt target. The essentials:
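Duplicate cultures were plated either on chloramphenicol/ampicillin LB agar, serving as control, or on chloramphenicol/ampicillin/kanamycin with 0.1 mM IPTG. These came from a pooled E. coli library co-electroporated with a donor plasmid, each member pairing a target with an IS621 bridge RNA target-binding loop. Recombination efficiency equals averaged, control-corrected counts per million of recombinant-junction barcodes. It is listed as log10(CPM+1).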
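Note: IS621 recombinase and bridge RNA in Escherichia coli cells.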

As for “CTCCTACCTTGGGTTCTAACCTGTTGCCT (site CTCCTACCTAG)”, the “recombinant barcode read abundance (log10)” value amounted to 0.957.
The value for “CTCCTCTCTTGGGTTCTAACCTGTTGCCT (site CTCCTCCCTAG)” was 0.862; that for “CTCCTCTCTTGGGTTCTAACCTGTTGCCT (site CTCCTCTCTAG)” was 2.05.
As to “CTCCTGCCTTGGGTTCTAACCTGTTGCCT (site CTCCTGCCTAG)”, the “recombinant barcode read abundance (log10)” value came out at 0.977.
On to “CTCCTGCCTTGGGTTCTAACCTGTTGCCT (site TTCCTGACTAG)”, for which the “recombinant barcode read abundance (log10)” value came to 0.0902.
The value for “CTCGACACTTGGGTTCTAACCTGTTGCCT (site CTAGACACTAG)” was 0.697; that for “CTCGACACTTGGGTTCTAACCTGTTGCCT (site CTCGACACTAG)” was 1.82.
In the case of “CTCGACACTTGGGTTCTAACCTGTTGCCT (site CTGGACACTAG)”, the “recombinant barcode read abundance (log10)” value turned out to be 0.0603.
The value for “CTCGACACTTGGGTTCTAACCTGTTGCCT (site CTTGACACTAG)” was 0.215; that for “CTCGCAGCTTGGGTTCTAACCTGTTGCGG (site CTCGCAGCTCC)” was 0.313; that for “CTCGCAGCTTGGGTTCTAACCTGTTGCGG (site CTCGCGACTCC)” was 0.141.
The value for “CTCGCGACTTGGGTTCTAACCTGTTGCGG (site CTCGCAGCTCC)” was 0.655.
The value for “CTCGCGACTTGGGTTCTAACCTGTTGCGG (site CTCGCGACTCC)” was 0.181; that for “CTCGCTCCTTGGGTTCTAACCTGTTGCTG (site AATAAGTCTAT)” was 0.102.
For the sequence “CTCGCTCCTTGGGTTCTAACCTGTTGCTG (site CTCGCTCCTCA)”, the “recombinant barcode read abundance (log10)” value was 0.563.
For “CTCGGAGCTTGGGTTCTAACCTGTTGCCT (site CTCGGAACTAG)”, the “recombinant barcode read abundance (log10)” value is 0.499.
The value for “CTCGGAGCTTGGGTTCTAACCTGTTGCCT (site CTCGGACCTAG)” was 0.0847; that for “CTCGGAGCTTGGGTTCTAACCTGTTGCCT (site CTCGGAGCTAG)” was 1.04; that for “CTCGGAGCTTGGGTTCTAACCTGTTGCCT (site CTCGGATCTAG)” was 0.311.
The value for “CTCGGATCTTGGGTTCTAACCTGTTGCTT (site CTCGGATCTAA)” was 1.38; that for “CTCGGATCTTGGGTTCTAACCTGTTGCTT (site CTCGGATCTCA)” was 0.0569.
The value for “CTCGGATCTTGGGTTCTAACCTGTTGCTT (site CTCGGATCTGA)” was 0.0569; that for “CTCGGATCTTGGGTTCTAACCTGTTGCTT (site CTCGGATCTTA)” was 0.371; that for “CTCTAAACTTGGGTTCTAACCTGTTGCCG (site CTCATAACTCG)” was 0.132.
With “CTCTAAACTTGGGTTCTAACCTGTTGCCG (site CTCTAAACTCG)”, the “recombinant barcode read abundance (log10)” value stood at 0.311.
The value for “CTCTACCCTTGGGTTCTAACCTGTTGCGT (site CTCTAACCTAC)” was 0.272; that for “CTCTACCCTTGGGTTCTAACCTGTTGCGT (site CTCTACCCTAC)” was 0.589; that for “CTCTACCCTTGGGTTCTAACCTGTTGCGT (site CTCTAGCCTAC)” was 0.0363.
For “CTCTACCCTTGGGTTCTAACCTGTTGCGT (site CTCTATCCTAC)”, the “recombinant barcode read abundance (log10)” value was 0.0916.
The value for “CTCTAGACTTGGGTTCTAACCTGTTGCGT (site CTCTAGACTAC)” was 2.01; that for “CTCTAGACTTGGGTTCTAACCTGTTGCGT (site CTTTAGACTAT)” was 0.211; that for “CTCTATTCTTGGGTTCTAACCTGTTGCAT (site CTCAATTCTAT)” was 0.262.
The value for “CTCTATTCTTGGGTTCTAACCTGTTGCAT (site CTCCATTCTAT)” was 0.16; that for “CTCTATTCTTGGGTTCTAACCTGTTGCAT (site CTCGATTCTAT)” was 0.161.
Take “CTCTATTCTTGGGTTCTAACCTGTTGCAT (site CTCTATTCTAT)”: the “recombinant barcode read abundance (log10)” value stood at 0.242.
The value for “CTCTCATCTTGGGTTCTAACCTGTTGCTT (site CTCTCATCTAA)” was 0.0308.
The value for “CTCTCATCTTGGGTTCTAACCTGTTGCTT (site CTCTCATCTAG)” was 0.232; that for “CTCTCGCCTTGGGTTCTAACCTGTTGCCT (site CTATCGCCTAG)” was 0; that for “CTCTCGCCTTGGGTTCTAACCTGTTGCCT (site CTCTCGCCTAG)” was 0.168.
The value for “CTCTCGCCTTGGGTTCTAACCTGTTGCCT (site CTGTCGCCTAG)” was 0.0587; that for “CTCTCGCCTTGGGTTCTAACCTGTTGCCT (site CTTTCGCCTAG)” was 0.0266.
Take “CTCTCGGCTTGGGTTCTAACCTGTTGCCT (site CTCTAGGCTAG)”: the “recombinant barcode read abundance (log10)” value was found to be 0.494.
The value for “CTCTCGGCTTGGGTTCTAACCTGTTGCCT (site CTCTCGGCTAG)” was 0.865.
The value for “CTCTCGGCTTGGGTTCTAACCTGTTGCCT (site CTCTGGGCTAG)” was 0.138; that for “CTCTCGGCTTGGGTTCTAACCTGTTGCCT (site CTCTTGGCTAG)” was 0.0157; that for “CTCTGCTCTTGGGTTCTAACCTGTTGCTC (site CTCTGCTCTGA)” was 0.724.
For “CTCTGCTCTTGGGTTCTAACCTGTTGCTC (site GCTGAGGCTTG)”, the “recombinant barcode read abundance (log10)” value is 0.
The value for “CTCTGTCCTTGGGTTCTAACCTGTTGCTA (site CTCTGTCCTTA)” was 0.346; that for “CTCTGTCCTTGGGTTCTAACCTGTTGCTA (site CTCTGTCCTTG)” was 0.0487.
Consider “CTCTTAACTTGGGTTCTAACCTGTTGCTA (site CTCTTAACTTA)”, for which the “recombinant barcode read abundance (log10)” value stood at 0.128.
The value for “CTCTTAACTTGGGTTCTAACCTGTTGCTA (site CTCTTAGCTTT)” was 0.134; that for “CTCTTGACTTGGGTTCTAACCTGTTGCTT (site CTCTGGACTAA)” was 0.0764.
The value for “CTCTTGACTTGGGTTCTAACCTGTTGCTT (site CTCTTGACTAA)” was 0.871; that for “CTGAGCCCTTGGGTTCTAACCTGTTGCCG (site CTAAGCCCTCC)” was 0.239.
In the case of “CTGAGCCCTTGGGTTCTAACCTGTTGCCG (site CTGAGCCCTCG)”, the “recombinant barcode read abundance (log10)” value turned out to be 1.08.
“CTGAGGCCTTGGGTTCTAACCTGTTGCCT (site ATGAGGCCTAG)”: the “recombinant barcode read abundance (log10)” value was 0.226.
The value for “CTGAGGCCTTGGGTTCTAACCTGTTGCCT (site CTGAGGCCTAG)” was 0.497; that for “CTGAGGCCTTGGGTTCTAACCTGTTGCCT (site GTGAGGCCTAG)” was 0.11; that for “CTGAGGCCTTGGGTTCTAACCTGTTGCCT (site TTGAGGCCTAG)” was 0.299.
The value for “CTGATAACTTGGGTTCTAACCTGTTGCCT (site CTGATAACTAG)” was 1.02; that for “CTGATAACTTGGGTTCTAACCTGTTGCCT (site CTGATCACTAG)” was 0.279; that for “CTGATAACTTGGGTTCTAACCTGTTGCCT (site CTGATGACTAG)” was 0.0814.
The value for “CTGATAACTTGGGTTCTAACCTGTTGCCT (site CTGATTACTAG)” was 0.136; that for “CTGCCCGCTTGGGTTCTAACCTGTTGCCT (site CTGCCCGCTAG)” was 0.667.
For the sequence “CTGCCCGCTTGGGTTCTAACCTGTTGCCT (site GTGCTCGCTAG)”, the “recombinant barcode read abundance (log10)” value was 0.366.
The value for “CTGCCCTCTTGGGTTCTAACCTGTTGCCT (site CAGCCCTCTAG)” was 0.932; that for “CTGCCCTCTTGGGTTCTAACCTGTTGCCT (site CCGCCCTCTAG)” was 0.179; that for “CTGCCCTCTTGGGTTCTAACCTGTTGCCT (site CGGCCCTCTAG)” was 0.0113.
The value for “CTGCCCTCTTGGGTTCTAACCTGTTGCCT (site CTGCCCTCTAG)” was 1.74; that for “CTGCGCTCTTGGGTTCTAACCTGTTGCAT (site CTGCGCTCTAT)” was 1.22.
For “CTGCGCTCTTGGGTTCTAACCTGTTGCAT (site TGTGAGCCTTC)”, the “recombinant barcode read abundance (log10)” value was determined as 0.0268.
The value for “CTGCGGTCTTGGGTTCTAACCTGTTGCAT (site ATGCGGTCTAG)” was 0.138; that for “CTGCGGTCTTGGGTTCTAACCTGTTGCAT (site CTGCGGTCTAT)” was 1.7; that for “CTGCGTACTTGGGTTCTAACCTGTTGCCG (site CTGCGTACTCG)” was 0.365.
The value for “CTGCGTACTTGGGTTCTAACCTGTTGCCG (site TCCAAGGCTTA)” was 0.0663; that for “CTGCGTCCTTGGGTTCTAACCTGTTGCCT (site CTCCGTCCTAG)” was 0.121.
The value for “CTGCGTCCTTGGGTTCTAACCTGTTGCCT (site CTGCGTCCTAG)” was 0.671.
